Key:
[1] = test system: creatinase from Alcalingenes; conditions: reported in patent US 5,451,520; substrate creatine taken from context (b8); cited from earlier work
[2] = test system: Erwinia sp. DSM 97-934 creatinase variant CT2m10 (N130D, I278T, F395L), SEQ ID NO: 14; assay: Km determination, coupled creatinase activity assay; assay type: biochemical; conditions: creatine substrate at 90, 45, 22.5, 11.3, 5.6 and 2.8 mM; 0.1 M potassium phosphate buffer pH 7.8; 25°C
Experimental: (§1) The activity assay for creatinase and its variants was performed by using creatine as substrate and a coupled enzymatic reaction according to Guder, W. G., et al., J Clin Chem Clin Biochem 24 (1986) 889-902.
(§2) The reaction mixture was set up by combining the following reagents:
(§3) The assay for creatinase was carried out at 25°C and at the wavelength of 546 nm for 10 min. ΔE was calculated from the measurement points of 6 to 10 min.
(§4) For KM determination, creatinase activity was determined according to the assay procedure described in Example 3 using six different concentrations of creatine substrate: 90 mM, 45 mM, 22.5 mM, 11.3 mM, 5.6 mM and 2.8 mM.

[3] = test system: Erwinia sp. DSM 97-934 creatinase variant CT2m28 (N130D, I304L, I278T), SEQ ID NO: 16; assay: as above; assay type: biochemical; conditions: creatine substrate at 90, 45, 22.5, 11.3, 5.6 and 2.8 mM; 0.1 M potassium phosphate buffer pH 7.8; 25°C
Experimental: as §1, §2, §3, §4

[4] = test system: Erwinia sp. DSM 97-934 creatinase variant CTqc2 (F59W, N130D, I278T), SEQ ID NO: 18; assay: as above; assay type: biochemical; conditions: creatine substrate at 90, 45, 22.5, 11.3, 5.6 and 2.8 mM; 0.1 M potassium phosphate buffer pH 7.8; 25°C
Experimental: as §1, §2, §3, §4

[5] = test system: Erwinia sp. DSM 97-934 creatinase variant CTsd2 (N130D, M203V, I278T, F395L), SEQ ID NO: 20; assay: as above; assay type: biochemical; conditions: creatine substrate at 90, 45, 22.5, 11.3, 5.6 and 2.8 mM; 0.1 M potassium phosphate buffer pH 7.8; 25°C
Experimental: as §1, §2, §3, §4

[6] = test system: Erwinia sp. DSM 97-934 creatinase, wild type, SEQ ID NO:2; assay: as above; assay type: biochemical; conditions: creatine substrate at 90, 45, 22.5, 11.3, 5.6 and 2.8 mM; 0.1 M potassium phosphate buffer pH 7.8; 25°C
Experimental: as §1, §2, §3, §4

[7] = test system: Erwinia sp. DSM 97-934 creatinase variant CT1m24 (N130D, I278T), SEQ ID NO: 10; assay: as above; assay type: biochemical; conditions: creatine substrate at 90, 45, 22.5, 11.3, 5.6 and 2.8 mM; 0.1 M potassium phosphate buffer pH 7.8; 25°C
Experimental: as §1, §2, §3, §4

[8] = test system: Erwinia sp. DSM 97-934 creatinase variant CTsd7 (F59W, N130D, M203V, I278T, F395L), SEQ ID NO: 22; assay: as above; assay type: biochemical; conditions: creatine substrate at 90, 45, 22.5, 11.3, 5.6 and 2.8 mM; 0.1 M potassium phosphate buffer pH 7.8; 25°C
Experimental: as §1, §2, §3, §4

[9] = test system: Erwinia sp. DSM 97-934 creatinase variant CT2m9 (N130D, M203V, I278T), SEQ ID NO: 12; assay: as above; assay type: biochemical; conditions: creatine substrate at 90, 45, 22.5, 11.3, 5.6 and 2.8 mM; 0.1 M potassium phosphate buffer pH 7.8; 25°C
Experimental: as §1, §2, §3, §4

## CN(CC(=O)O)C(=N)N [creatine]
[1]
  Km: 13 mM
[2]
  Km: 3.4 mM
[3]
  Km: 4 mM
[4]
  Km: 6.6 mM
[5]
  Km: 2.1 mM
[6]
  Km: 4.3 mM
[7]
  Km: 8.2 mM
[8]
  Km: 2 mM
[9]
  Km: 6.3 mM

Source: patent publication EP1298213A1, “Variants of an Erwinia-type creatinase” (Roche Diagnostics GmbH, priority 2001, dated 2003)
